# Test results as given in patent US9254261B2, “Stable quick dissolving dosage form comprising amoxicillin and clavulanic acid” (Sandoz AG, priority 2014, dated 2016).
# Test: Stability of potassium clavulanate alone and in binary mixtures with excipients, stressed storage 7 days at 60° C.
# Type: physicochemical
# Settings: after storage 7 days at 60° C.; control sample, no excipient
# Procedure: In particular, the effect of different excipients and different mixture preparation conditions on the stability of the active ingredients was analyzed. […] In addition, two sets of compatibility studies with various excipients were conducted to investigate the influence of excipients on the stability of clavulanic acid and amoxicillin in the final dosage form. In the first study, a total of eight binary (i.e. two component) mixtures were prepared, each combining: […] (a) silicified microcrystalline cellulose, (b) low moisture silicified microcrystalline cellulose, having a moisture content of less than about 3.0%, (c) crospovidone, or (d) mannitol. […] After storage at a temperature of about 60° C. for about 7 days, each of the mixtures was then assayed to determine the amount of active ingredient remaining. Similarly, in the second study, a total of eight binary mixtures were prepared, each combining: […] (a) silicified microcrystalline cellulose, (b) low moisture silicified microcrystalline cellulose, (c) crospovidone, or (d) colloidal silicon dioxide. […] Further, each of the binary mixtures in the second study was prepared in a reduced moisture environment at a normal relative humidity (RH) of less than 30%. After storage at a temperature of about 60° C. for about 7 days, each of the mixtures was then assayed to determine the amount of active ingredient remaining.
compound,measurement,value
"O=C(O)[C@H]1/C(=C/CO)O[C@@H]2CC(=O)N21 [Clavulanic acid (CA), potassium clavulanate]",Assay of clavulanic acid (%),94%
